Measured values taken from the supplement of paper PMC5662764.
± gives the standard deviation of the averaged measurements.

Tests used:
Experiment in all cases: normalised growth rate inhibition (GR value) relative to DMSO control (GR (1 = untreated growth, 0 = cytostasis, <0 = cytotoxic)); higher = less growth inhibition
Settings in all cases: 72 h
MCF7 = tested on: MCF7
Method: (§1)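 Breast cancer cell lines (BT-20, Hs 578T, MCF 10A, MCF7, MDA-MB-231, SK-BR-3) were plated in 384-well plates and treated 24 h later with drugs at six concentrations (0.04-10 µM). Viable cells were counted by Hoechst/dead-cell-stain imaging at 0 and 72 h. Counts were normalised to DMSO controls on the same plate to give the relative cell count and the growth-rate inhibition (GR) value; technical plate triplicates were averaged for each biological replicate.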

MCF10A = tested on: MCF10A
Method: as §1

MDAMB231 = tested on: MDAMB231
Method: as §1

HS578T = tested on: HS578T
Method: as §1

BT20 = tested on: BT20
Method: as §1

SKBR3 = tested on: SKBR3
Method: as §1

Structure (SMILES)	normalised growth rate inhibition (MCF7; 0.04 µM)	normalised growth rate inhibition (MCF7; 0.12 µM)	normalised growth rate inhibition (MCF7; 0.37 µM)	normalised growth rate inhibition (MCF7; 1.11 µM)	normalised growth rate inhibition (MCF7; 3.33 µM)	normalised growth rate inhibition (MCF7; 10 µM)	normalised growth rate inhibition (MCF10A; 0.04 µM)	normalised growth rate inhibition (MCF10A; 0.12 µM)	normalised growth rate inhibition (MCF10A; 0.37 µM)	normalised growth rate inhibition (MCF10A; 1.11 µM)	normalised growth rate inhibition (MCF10A; 3.33 µM)	normalised growth rate inhibition (MCF10A; 10 µM)	normalised growth rate inhibition (MDAMB231; 0.04 µM)	normalised growth rate inhibition (MDAMB231; 0.12 µM)	normalised growth rate inhibition (MDAMB231; 0.37 µM)	normalised growth rate inhibition (MDAMB231; 1.11 µM)	normalised growth rate inhibition (MDAMB231; 3.33 µM)	normalised growth rate inhibition (MDAMB231; 10 µM)	normalised growth rate inhibition (HS578T; 0.04 µM)	normalised growth rate inhibition (HS578T; 0.12 µM)	normalised growth rate inhibition (HS578T; 0.37 µM)	normalised growth rate inhibition (HS578T; 1.11 µM)	normalised growth rate inhibition (HS578T; 3.33 µM)	normalised growth rate inhibition (HS578T; 10 µM)	normalised growth rate inhibition (BT20; 0.04 µM)	normalised growth rate inhibition (BT20; 0.12 µM)	normalised growth rate inhibition (BT20; 0.37 µM)	normalised growth rate inhibition (BT20; 1.11 µM)	normalised growth rate inhibition (BT20; 3.33 µM)	normalised growth rate inhibition (BT20; 10 µM)	normalised growth rate inhibition (SKBR3; 0.04 µM)	normalised growth rate inhibition (SKBR3; 0.12 µM)	normalised growth rate inhibition (SKBR3; 0.37 µM)	normalised growth rate inhibition (SKBR3; 1.11 µM)	normalised growth rate inhibition (SKBR3; 3.33 µM)	normalised growth rate inhibition (SKBR3; 10 µM)
CCOc1cc2ncc(C#N)c(Nc3ccc(F)c(Cl)c3)c2cc1NC(=O)/C=C/CN(C)C [pelitinib]	1.06 ± 0.061	1.03 ± 0.12	0.935 ± 0.068	0.763 ± 0.14	0.33 ± 0.14	-0.164 ± 0.085	0.542 ± 0.25	0.267 ± 0.27	0.115 ± 0.042	0.129 ± 0.04	0.111 ± 0.042	-0.017 ± 0.046	1.05 ± 0.042	1.03 ± 0.051	0.88 ± 0.043	0.75 ± 0.11	0.318 ± 0.18	-0.143 ± 0.073	0.9931 ± 0.0014	0.956 ± 0.052	0.841 ± 0.042	0.79 ± 0.035	0.569 ± 0.33	-0.122 ± 0.026	0.966 ± 0.066	0.877 ± 0.099	0.7676 ± 0.006	0.697 ± 0.037	0.594 ± 0.13	-0.241 ± 0.14	0.618 ± 0.21	0.332 ± 0.21	-0.0906 ± 0.18	-0.0946 ± 0.17	-0.052 ± 0.16	-0.227 ± 0.096
C[C@@H]1C[C@H]2O[C@@H]2/C=C\C=C\C(=O)Cc2c(Cl)c(O)cc(O)c2C(=O)O1 [radicicol]	0.574 ± 0.059	0.262 ± 0.033	0.124 ± 0.04	0.123 ± 0.036	0.115 ± 0.035	-0.0962 ± 0.041	0.886 ± 0.075	0.598 ± 0.21	0.299 ± 0.15	0.104 ± 0.021	-0.0227 ± 0.054	-0.182 ± 0.1	1.06 ± 0.035	0.744 ± 0.084	0.298 ± 0.12	0.0741 ± 0.12	0.0054 ± 0.14	-0.0299 ± 0.12	1.029 ± 0.01	0.95 ± 0.091	0.704 ± 0.27	0.321 ± 0.19	0.0951 ± 0.08	0.049 ± 0.12	0.839 ± 0.08	0.395 ± 0.11	0.115 ± 0.088	-0.0176 ± 0.13	-0.0598 ± 0.11	-0.163 ± 0.097	0.329 ± 0.053	0.0873 ± 0.083	0.0279 ± 0.1	-0.0112 ± 0.14	-0.0134 ± 0.1	-0.166 ± 0.053
CC[C@H](CO)Nc1nc(NCc2ccccc2)c2ncn(C(C)C)c2n1 [roscovitine]	1.07 ± 0.066	1.02 ± 0.024	0.922 ± 0.048	0.818 ± 0.068	0.717 ± 0.087	-0.102 ± 0.15	0.9943 ± 0.0068	0.9805 ± 0.0066	0.9621 ± 0.0088	0.955 ± 0.014	0.926 ± 0.025	0.439 ± 0.19	1.03 ± 0.035	0.971 ± 0.03	0.926 ± 0.03	0.88 ± 0.033	0.811 ± 0.077	0.401 ± 0.068	1.009 ± 0.01	1.01 ± 0.016	0.975 ± 0.011	0.954 ± 0.034	0.95 ± 0.054	0.688 ± 0.062	1.022 ± 0.0042	0.9967 ± 0.0034	0.913 ± 0.029	0.844 ± 0.084	0.759 ± 0.062	0.197 ± 0.044	1.04 ± 0.093	1.04 ± 0.045	0.979 ± 0.085	0.852 ± 0.043	0.677 ± 0.023	0.146 ± 0.18
N#CC[C@H](C1CCCC1)n1cc(-c2ncnc3[nH]ccc23)cn1 [ruxolitinib]	0.967 ± 0.062	0.948 ± 0.047	0.963 ± 0.042	1.05 ± 0.038	1.05 ± 0.027	0.778 ± 0.075	0.9818 ± 0.0081	0.9898 ± 0.007	0.978 ± 0.011	0.956 ± 0.019	0.948 ± 0.021	0.828 ± 0.039	0.938 ± 0.065	0.922 ± 0.052	0.933 ± 0.087	0.95 ± 0.069	0.95 ± 0.043	0.673 ± 0.26	0.9891 ± 0.0054	0.985 ± 0.039	0.973 ± 0.023	0.9536 ± 0.0035	0.901 ± 0.021	0.693 ± 0.031	0.973 ± 0.066	0.942 ± 0.019	0.95 ± 0.046	0.973 ± 0.08	0.933 ± 0.087	0.707 ± 0.074	0.882 ± 0.12	0.903 ± 0.098	0.922 ± 0.086	0.918 ± 0.057	0.958 ± 0.084	0.81 ± 0.18
CN1CCN(CCOc2cc(OC3CCOCC3)c3c(Nc4c(Cl)ccc5c4OCO5)ncnc3c2)CC1 [saracatinib]	0.854 ± 0.055	0.661 ± 0.12	0.43 ± 0.2	0.323 ± 0.27	0.228 ± 0.26	0.266 ± 0.21	1.012 ± 0.0071	0.9684 ± 0.0069	0.906 ± 0.045	0.745 ± 0.12	0.534 ± 0.14	0.108 ± 0.033	0.862 ± 0.075	0.704 ± 0.086	0.587 ± 0.065	0.51 ± 0.09	0.489 ± 0.12	0.348 ± 0.11	0.9858 ± 0.0065	0.92 ± 0.039	0.828 ± 0.043	0.697 ± 0.088	0.609 ± 0.089	0.339 ± 0.092	0.993 ± 0.057	0.944 ± 0.024	0.877 ± 0.032	0.785 ± 0.06	0.621 ± 0.11	0.26 ± 0.07	1.15 ± 0.098	1.12 ± 0.1	1 ± 0.07	0.916 ± 0.08	0.763 ± 0.057	0.207 ± 0.11
Cn1cnc2c(F)c(Nc3ccc(Br)cc3Cl)c(C(=O)NOCCO)cc21 [selumetinib]	0.867 ± 0.13	0.696 ± 0.071	0.568 ± 0.062	0.543 ± 0.072	0.575 ± 0.063	0.524 ± 0.024	0.598 ± 0.026	0.455 ± 0.053	0.36 ± 0.056	0.281 ± 0.053	0.25 ± 0.041	0.177 ± 0.042	0.846 ± 0.078	0.702 ± 0.097	0.545 ± 0.088	0.458 ± 0.068	0.36 ± 0.068	0.2 ± 0.083	0.636 ± 0.094	0.53 ± 0.1	0.471 ± 0.068	0.428 ± 0.055	0.369 ± 0.036	0.26 ± 0.056	1.11 ± 0.084	1.03 ± 0.099	0.999 ± 0.059	1.01 ± 0.061	0.974 ± 0.093	0.975 ± 0.081	1.139 ± 0.0015	1.037 ± 0.0086	1.044 ± 0.0095	1.02 ± 0.052	1.02 ± 0.033	0.969 ± 0.034
CO[C@H]1C[C@@H]2CC[C@@H](C)[C@@](O)(O2)C(=O)C(=O)N2CCCC[C@H]2C(=O)O[C@H]([C@H](C)C[C@@H]2CC[C@@H](O)[C@H](OC)C2)CC(=O)[C@H](C)/C=C(\C)[C@@H](O)[C@@H](OC)C(=O)[C@H](C)C[C@H](C)/C=C/C=C/C=C/1C [sirolimus]	0.502 ± 0.075	0.502 ± 0.07	0.486 ± 0.048	0.49 ± 0.08	0.495 ± 0.048	0.456 ± 0.096	0.982 ± 0.074	0.999 ± 0.069	0.995 ± 0.082	0.997 ± 0.077	1 ± 0.089	0.986 ± 0.087	0.802 ± 0.049	0.781 ± 0.039	0.812 ± 0.048	0.787 ± 0.042	0.784 ± 0.07	0.8 ± 0.087	0.629 ± 0.089	0.619 ± 0.048	0.619 ± 0.055	0.632 ± 0.072	0.621 ± 0.066	0.62 ± 0.09	0.54 ± 0.03	0.514 ± 0.062	0.522 ± 0.056	0.524 ± 0.067	0.536 ± 0.061	0.587 ± 0.043	0.47 ± 0.069	0.449 ± 0.056	0.405 ± 0.12	0.389 ± 0.09	0.366 ± 0.082	0.353 ± 0.1
